Among the test systems are KM12 colon; M14 melanoma; OVCAR-3 ovarian; SNB-75 CNS; RPMI-8226 leukemia; A498 renal; SF-295 CNS; OVCAR-8 ovarian; BT-549 breast; DU-145 prostate.
Common to all, as to assay: NCI-60 cell line screen, 48 h

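Cells were grown in 96-well plates and exposed to each compound for 48 hours at five concentrations; endpoints were interpolated linearly between bracketing concentrations, or set to the highest concentration if not reached. The concentration for 50% growth inhibition is given as GI50. TGI marks complete inhibition of growth.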 Bounds are passed on as bounds.

Turning to `CC(C)C(Nc1c2ccccc2[n+](C)c2ccccc12)C(=O)O` (stereo not drawn), the TGI in the experiment on KM12 colon, with M14 melanoma, in the experiment with OVCAR-3 ovarian, with SNB-75 CNS, in the experiment on RPMI-8226 leukemia and with A498 renal was greater than 100 µM each time. In addition, the TGI in the experiment with SF-295 CNS and in the experiment on OVCAR-8 ovarian was greater than 100 µM each time.

With `CCOC(=O)C(NC(=O)c1ccccc1)(Nc1ccc(S(=O)(=O)Nc2cc(C)on2)cc1)C(F)(F)F` (stereo not drawn), the TGI with KM12 colon, with M14 melanoma, in the experiment with OVCAR-3 ovarian, with BT-549 breast, in the experiment with SNB-75 CNS and with RPMI-8226 leukemia was greater than 100 µM each time. In addition, the TGI with SF-295 CNS, in the experiment with DU-145 prostate and in the experiment with OVCAR-8 ovarian was greater than 100 µM throughout.

`COc1ccc(C2CC(c3cccc(Nc4ccncc4)c3)=NN2c2ccccc2)cc1` (stereo not drawn): the GI50 with KM12 colon is 1.79 µM; with M14 melanoma, 1.87 µM; in the experiment on OVCAR-3 ovarian, 1.86 µM; in the experiment on BT-549 breast, 4.94 µM; in the experiment on SNB-75 CNS, 1.55 µM; in the experiment on A498 renal it was 1.41 µM. The GI50 in the experiment on SF-295 CNS was 1.8 µM; in the experiment on DU-145 prostate it was 2.57 µM; in the experiment with OVCAR-8 ovarian it was 2.19 µM. The TGI turned out to be 3.5 µM in the experiment with KM12 colon; 3.74 µM in the experiment with M14 melanoma; 3.52 µM in the experiment with OVCAR-3 ovarian; 20.6 µM with BT-549 breast; 5.23 µM in the experiment on SNB-75 CNS; 9.69 µM in the experiment with A498 renal. Also, the figures for the TGI with SF-295 CNS, in the experiment on DU-145 prostate and in the experiment on OVCAR-8 ovarian were 3.32 µM, 6.51 µM and 4.77 µM, respectively.

As for `CC(=O)N1CN2C(=O)CCC2c2cc(C)ccc21` (stereo not drawn), the TGI in the experiment on KM12 colon, with M14 melanoma, in the experiment on OVCAR-3 ovarian, with SNB-75 CNS, in the experiment with RPMI-8226 leukemia and with A498 renal was greater than 100 µM each time. Further, the TGI in the experiment on SF-295 CNS, in the experiment with DU-145 prostate and in the experiment on OVCAR-8 ovarian was greater than 100 µM each time.

For the compound `CN(Cc1ccccc1)C(=S)S`, the TGI with KM12 colon is greater than 100 µM; in the experiment with M14 melanoma it was 72.6 µM; with OVCAR-3 ovarian it was greater than 100 µM; in the experiment with BT-549 breast it was greater than 100 µM; in the experiment on SNB-75 CNS, greater than 100 µM; in the experiment on A498 renal, greater than 100 µM. Moreover, the TGI in the experiment on SF-295 CNS, in the experiment on DU-145 prostate and with OVCAR-8 ovarian was greater than 100 µM throughout.

As for `O=c1ccc(=O)c2c1c1[nH]c3ccccc3c1c1c(=O)c3ccccc3c(=O)c21`, the TGI in the experiment on KM12 colon, with M14 melanoma, in the experiment with OVCAR-3 ovarian, with SNB-75 CNS, in the experiment on RPMI-8226 leukemia and in the experiment with A498 renal was greater than 10 µM each time. Also, the TGI with SF-295 CNS, with DU-145 prostate and in the experiment with OVCAR-8 ovarian was greater than 10 µM each time.

Take `CC(C)(C)C(=O)C(N)C(=O)C(C)(C)C`: the TGI in the experiment with KM12 colon, in the experiment on M14 melanoma, in the experiment on BT-549 breast, in the experiment on SNB-75 CNS, in the experiment with RPMI-8226 leukemia and with SF-295 CNS was greater than 100 µM throughout. The TGI in the experiment with DU-145 prostate and in the experiment with OVCAR-8 ovarian was greater than 100 µM throughout.

Consider `COC(=O)c1sc2c(Cl)c(Cl)sc2c1Cl`, for which the TGI in the experiment on KM12 colon, in the experiment with M14 melanoma, with OVCAR-3 ovarian, with BT-549 breast, in the experiment with SNB-75 CNS and in the experiment with A498 renal was greater than 100 µM in each case. Moreover, the TGI with SF-295 CNS, in the experiment on DU-145 prostate and with OVCAR-8 ovarian was greater than 100 µM in each case.

In the case of `Cc1cc(Br)c(O)c(-c2cscn2)c1`, the TGI in the experiment with M14 melanoma was 44 µM; in the experiment with OVCAR-3 ovarian, greater than 100 µM; in the experiment with BT-549 breast, 24 µM; in the experiment on RPMI-8226 leukemia, 20.3 µM; in the experiment with A498 renal it was 76.8 µM; with SF-295 CNS, greater than 100 µM. The TGI in the experiment with OVCAR-8 ovarian stood at 42.1 µM.

For the compound `Cn1c(COC(=O)NC2CCCCC2)c(COC(=O)NC2CCCCC2)c2ccc3ccccc3c21`, the TGI in the experiment with KM12 colon is greater than 100 µM; in the experiment with M14 melanoma, greater than 100 µM; in the experiment on OVCAR-3 ovarian it was greater than 100 µM; in the experiment with BT-549 breast it was greater than 100 µM; in the experiment with SNB-75 CNS, 78.9 µM; in the experiment on RPMI-8226 leukemia, greater than 100 µM. For the same compound, the TGI is 32 µM in the experiment on A498 renal, greater than 100 µM with SF-295 CNS and greater than 100 µM in the experiment with OVCAR-8 ovarian.

Consider `O=C(CN1CCCC1)Nc1ccc2c(c1)C1Oc3ccccc3CC1CO2` (stereo not drawn), for which the TGI in the experiment with KM12 colon was greater than 100 µM; in the experiment on M14 melanoma, 36.4 µM; in the experiment on OVCAR-3 ovarian, greater than 100 µM; in the experiment with BT-549 breast, 75.4 µM; with RPMI-8226 leukemia, 78.9 µM; in the experiment with A498 renal, greater than 100 µM. Also, the TGI in the experiment on SF-295 CNS is 39.7 µM; in the experiment on DU-145 prostate, greater than 100 µM; in the experiment on OVCAR-8 ovarian it was greater than 100 µM.

With `COc1cc(CNc2nc3c(NC(C)=O)cc(C(F)(F)F)cc3nc2-c2ccccc2)cc(OC)c1OC`, the TGI in the experiment with KM12 colon, with OVCAR-3 ovarian, in the experiment with RPMI-8226 leukemia, with SF-295 CNS and in the experiment with OVCAR-8 ovarian was greater than 100 µM throughout.

As for `N#Cc1nc(-c2ccsc2)oc1N`, the TGI in the experiment with KM12 colon, in the experiment on M14 melanoma, with SNB-75 CNS, with RPMI-8226 leukemia, in the experiment on A498 renal and with DU-145 prostate was greater than 100 µM throughout. Besides, in the experiment with OVCAR-8 ovarian, the TGI was greater than 100 µM.

On to `COC1=C(OC)C(=O)C(Cc2c(-c3ccccc3)nc3sc(Cl)cn23)=C(C)C1=O`, for which the TGI worked out at 41 µM in the experiment on KM12 colon; 33.7 µM with M14 melanoma; 32 µM in the experiment with OVCAR-3 ovarian; 30.2 µM in the experiment on BT-549 breast; 34.9 µM in the experiment on RPMI-8226 leukemia; 47.2 µM in the experiment with A498 renal. Moreover, the TGI was found to be 34.3 µM with SF-295 CNS, 49.1 µM in the experiment on DU-145 prostate and 32.9 µM in the experiment on OVCAR-8 ovarian.

`CC1=NN(c2cc(Cl)c(S(=O)(=O)O)cc2Cl)C2(C1)C(Cl)C(=O)N2c1nc2ccccc2s1` (stereo not drawn): the TGI in the experiment on KM12 colon, in the experiment with M14 melanoma, with BT-549 breast, in the experiment on SNB-75 CNS, with RPMI-8226 leukemia and with A498 renal was greater than 100 µM throughout. Further, the TGI in the experiment on DU-145 prostate and with OVCAR-8 ovarian was greater than 100 µM in each case.

The values are drawn from PubChem BioAssay (NCI).
